# Data as given in patent publication US20090318485A1, “NOVEL INHIBITORS OF RHO KINASE” (KALYPSYS, INC., priority 2006, published 2009).
# Tests used:
# [1] = biological target: T1, recombinant N-terminal GST-tagged human Rho kinase 2 (ROCK2, amino acids 1-552) (Homo sapiens, UniProt O75116); assay: In vitro Rho kinase assay (luciferase-based ATP consumption), ROCK2; format: biochemical; conditions: 3 μM ATP, S6 peptide substrate, 30° C. for 2 hours; read-out: ROCK 2 IC50
# T1 construct: human Rho kinase 2 (ROCK2, amino acids 1-552, Invitrogen Inc); purchased Invitrogen Inc. PV3759
# T1 sequence (O75116 1-552): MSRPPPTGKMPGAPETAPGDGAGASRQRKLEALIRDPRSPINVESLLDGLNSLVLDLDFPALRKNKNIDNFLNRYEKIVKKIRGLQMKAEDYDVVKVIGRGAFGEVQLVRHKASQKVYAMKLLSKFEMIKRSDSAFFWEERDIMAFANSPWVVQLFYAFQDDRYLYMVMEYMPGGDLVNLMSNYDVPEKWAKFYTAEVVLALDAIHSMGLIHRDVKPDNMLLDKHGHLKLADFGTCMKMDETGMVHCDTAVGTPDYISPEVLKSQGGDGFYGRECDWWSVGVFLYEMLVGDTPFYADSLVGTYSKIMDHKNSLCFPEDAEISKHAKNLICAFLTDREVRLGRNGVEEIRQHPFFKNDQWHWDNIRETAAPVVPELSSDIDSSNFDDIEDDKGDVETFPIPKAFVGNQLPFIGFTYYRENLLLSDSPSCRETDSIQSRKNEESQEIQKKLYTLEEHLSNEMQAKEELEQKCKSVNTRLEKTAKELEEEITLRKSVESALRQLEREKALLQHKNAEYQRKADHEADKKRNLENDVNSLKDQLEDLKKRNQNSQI
# Description: (§1) In Vitro Rho Kinase Assay
# (§2) Rho kinase biochemical assays described below depend on firefly luciferase-based, indirect measurement of total ATP consumption by the kinase following incubation with substrate and ATP. […] The plate is centrifuged for 30 seconds at approximately 200×g. 240 nl of test compound in DMSO is dispensed to each well by passive pin transfer. The lag phase of this in vitro kinase reaction permits addition of compounds soon after the reaction initiates. The reaction is allowed to incubate at 30° C. for 2 hours. The assay plates are sealed and maintained in a humidified environment. […] After an additional 10 minute incubation at room temperature (about 22° C.), luminescence activity is measured on a Molecular Devices Analyst multi-mode plate reader or other suitable plate reader. Kinase inhibition results in less ATP consumption, and therefore increased luminescence signal. Negative control activity is measured with DMSO lacking any test compound. The positive control is 2-methyl-1-(4-methylisoquinolin-5-ylsulfonyl)perhydro-1,4-diazepine hydrochloride (aka H-1152P, HCl salt). Efficacy is measured as a percentage of positive control activity.
# [2] = biological target: T2, recombinant N-terminal GST-tagged human Rho kinase 1 (ROCK1, amino acids 1-535) (Homo sapiens, UniProt Q13464); assay: In vitro Rho kinase assay (luciferase-based ATP consumption), ROCK1; format: biochemical; conditions: 3 μM ATP, S6 peptide substrate, 30° C. for 2 hours; read-out: ROCK 1 IC50
# T2 construct: human Rho kinase 1 (ROCK1, amino acids 1-535, Invitrogen Inc); purchased Invitrogen Inc. PV-3691
# T2 sequence (Q13464 1-535): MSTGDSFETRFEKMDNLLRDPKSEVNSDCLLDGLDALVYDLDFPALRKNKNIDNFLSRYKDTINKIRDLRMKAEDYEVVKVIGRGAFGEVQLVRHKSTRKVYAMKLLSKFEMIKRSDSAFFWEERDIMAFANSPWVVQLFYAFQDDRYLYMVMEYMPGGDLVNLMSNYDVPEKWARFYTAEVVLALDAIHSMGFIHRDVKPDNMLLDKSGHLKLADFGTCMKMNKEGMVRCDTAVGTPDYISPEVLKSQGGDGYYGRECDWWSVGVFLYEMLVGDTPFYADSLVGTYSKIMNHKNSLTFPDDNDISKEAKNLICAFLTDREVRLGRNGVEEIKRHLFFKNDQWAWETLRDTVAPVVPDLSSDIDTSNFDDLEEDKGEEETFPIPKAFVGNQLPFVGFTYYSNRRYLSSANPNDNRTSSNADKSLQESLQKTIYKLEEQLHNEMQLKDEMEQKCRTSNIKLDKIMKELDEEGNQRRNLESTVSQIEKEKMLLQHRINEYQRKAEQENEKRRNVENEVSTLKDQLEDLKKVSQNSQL
# Description: as §1, §2
Structure (SMILES),IC50 [1] [µM],IC50 [2] [µM]
CSc1nc(-c2ccncc2)nc(N)c1C#N [Example 5],≤ 5,≤ 5
CC(CCc1ccc(O)cc1)Nc1ccc2[nH]ncc2c1 (stereo not drawn) [Example 7],> 5,≤ 5
C=CCN(CC=C)S(=O)(=O)c1ccc2nc(N)sc2c1 [Example 9],≤ 5,≤ 5
CN(C)CCN(Cc1ccccc1)Cc1cc(-c2ccnc3cc(Cl)ccc23)ccc1O [Example 4],≤ 5,> 5
CC(OC(=O)c1ccc(O)cc1)C(=O)Nc1ccc(Cl)c(Cl)c1 (stereo not drawn) [Example 8],≤ 5,≤ 5
CC1CCC(C(=O)NC(C(=O)Nc2ccncc2)C(C)C)CC1 (stereo not drawn) [Example 13],≤ 5,≤ 5
Cc1cc(C)c2c(N)c(C(N)=O)sc2n1 [Example 2],≤ 5,≤ 5
C=CCc1cccc2cc(C(N)=O)c(=N)oc12 [Example 1],≤ 5,≤ 5
CC(C)(CO)CNc1nc(-c2ccncc2)cnc1N [Example 6],≤ 5,≤ 5
O=C1NC(=Cc2ccc(O)c(Br)c2)C(=O)N1Cc1ccccc1F [Example 11],≤ 5,≤ 5
CC(C)c1cc2cc(/C=C/C(=O)O)c(O)cc2o1 [Example 3],≤ 5,≤ 5
Clc1ccc(Cn2cc(-c3ccncc3)cn2)c(Cl)c1 [Example 15],≤ 5,≤ 5
CCOC(=O)c1nnn(-c2nonc2N)c1-c1ccccc1Cl [Example 12],> 5,> 5
Cc1cc(=O)oc2cc(OC(C)C(=O)Nc3nccs3)ccc12 (stereo not drawn) [Example 10],,> 5
